# Laboratory results as given in US11420944B2, “Voltage-dependent t-type calcium channel blocker” (Nippon Chemiphar Co., Ltd., priority 2016, dated 2022).
# Where a name gives a salt, the structure may show the parent alone. Read-outs that look alike come from different tables or passages of the source.
# Biological target: T1, human Cav3.2 channels (Homo sapiens, UniProt O95180)
# T1 construct: expressed in transfected cells; host or cells: HEK293 cells (ATCC No. CRL-1573), plasmid pcDNA3.1(+)
# Test: Intracellular calcium concentration measurement (Fluo-4 AM) in stable cells expressing human Cav3.2 channels, buffer A / buffer B
# Assay type: cell-based
# Description: Construction of Stable Cells Expressing Human Cav3.2 Channels
# (1) A sequence produced by incorporating HindIII site and kozak sequence (GCCACC) into the 5′-terminal side of human Cav3.2 channel ORF (Open Reading Frame) gene and incorporating Kpnl site into the 3′-terminal side was incorporated into pcDNA3.1(+) (Thermo-Fisher Scientific, Inc., #V790-20), and the plasmid was transfected into HEK293 cells (ATCC No. CRL-1573) according to the protocol of FuGENE (registered trademark) HD Transfection Reagent (PROMEGA #E2311).
# (2) Method for Measuring Intracellular Calcium Concentration
# In the present measurement system, buffer A and buffer B having different potassium ion concentrations were used in order to evaluate the state-dependent Cav3.2 inhibitory action of a test compound.
# Stable cell line expressing human Cav3.2 channels, which had been produced in (1), was seeded in a 96-well plate using DMEM medium including 10% FBS, and the cells were cultured for 48 hours under the conditions of 37° C. and 5% CO2. Subsequently, the medium was removed, and various wells that had been washed with a base buffer were treated with 80 μL of a fluorescent dye solution containing a mixed liquid of 22 μg of calcium fluorescence indicator Fluo-4 AM (Dojindo Laboratories Co., Ltd., #F311), 20 μL of DMSO, […] of 10% Pluronic F-127 (Thermo-Fisher Scientific, Inc., #P6866), and 4 mL of a base buffer. The cells were left to stand for 45 minutes at room temperature in the dark, and then the cells were washed with buffer A or buffer B. Solutions having various test compound concentrations and respectively containing buffer A or buffer B were added to the respective wells, the respective solutions containing DMSO at the same final concentration as that of the test compound as negative control, or containing the test compound dissolved in 100% DMSO at a final concentration of 0.1%. The cells were left to stand for another 15 minutes at room temperature in the dark, and the cells were analyzed using the following method using a microplate reader, EnVision (PerkinElmer, Inc.). First, the background fluorescence for each well was measured, subsequently an ionophore was added to the well, and the fluorescence of the baseline was measured. Subsequently, buffer A or buffer B containing added KCl at a concentration of 83.8 mM or 91.8 mM was added to each well, and an increase in fluorescence caused by a calcium influx generated by that stimulus was measured for 10 seconds. The percentage inhibition was calculated from the maximum fluorescence increment from the baseline, and the logarithmic value of the test compound concentration and the inhibitory activity were plotted to calculate the IC50 value. The analysis was carried out by measuring the fluorescence at 510 nm emitted when the cells were irradiated with exciting light at 485 nm.
# Base buffer: 140 mM NaCl, 5 mM KCl, 1 mM MgCl2, 0.5 mM CaCl2, 10 mM Glucose, and 10 mM HEPES, pH 7.3
# Buffer A: Equilibrium potential of potassium: −92 mV
# [1] = Tables 2 to 6, buffer A, equilibrium potential of potassium −92 mV, read-out: Inhibitory action of buffer A (inactivated state)
# [2] = Table 1, buffer A, equilibrium potential of potassium −92 mV, read-out: Inhibitory action of buffer A (inactivated state)
# [3] = Table 1, buffer B, equilibrium potential of potassium −110 mV, read-out: Inhibitory action of buffer B (resting state or closed state)
# T1 sequence (O95180 whole entry): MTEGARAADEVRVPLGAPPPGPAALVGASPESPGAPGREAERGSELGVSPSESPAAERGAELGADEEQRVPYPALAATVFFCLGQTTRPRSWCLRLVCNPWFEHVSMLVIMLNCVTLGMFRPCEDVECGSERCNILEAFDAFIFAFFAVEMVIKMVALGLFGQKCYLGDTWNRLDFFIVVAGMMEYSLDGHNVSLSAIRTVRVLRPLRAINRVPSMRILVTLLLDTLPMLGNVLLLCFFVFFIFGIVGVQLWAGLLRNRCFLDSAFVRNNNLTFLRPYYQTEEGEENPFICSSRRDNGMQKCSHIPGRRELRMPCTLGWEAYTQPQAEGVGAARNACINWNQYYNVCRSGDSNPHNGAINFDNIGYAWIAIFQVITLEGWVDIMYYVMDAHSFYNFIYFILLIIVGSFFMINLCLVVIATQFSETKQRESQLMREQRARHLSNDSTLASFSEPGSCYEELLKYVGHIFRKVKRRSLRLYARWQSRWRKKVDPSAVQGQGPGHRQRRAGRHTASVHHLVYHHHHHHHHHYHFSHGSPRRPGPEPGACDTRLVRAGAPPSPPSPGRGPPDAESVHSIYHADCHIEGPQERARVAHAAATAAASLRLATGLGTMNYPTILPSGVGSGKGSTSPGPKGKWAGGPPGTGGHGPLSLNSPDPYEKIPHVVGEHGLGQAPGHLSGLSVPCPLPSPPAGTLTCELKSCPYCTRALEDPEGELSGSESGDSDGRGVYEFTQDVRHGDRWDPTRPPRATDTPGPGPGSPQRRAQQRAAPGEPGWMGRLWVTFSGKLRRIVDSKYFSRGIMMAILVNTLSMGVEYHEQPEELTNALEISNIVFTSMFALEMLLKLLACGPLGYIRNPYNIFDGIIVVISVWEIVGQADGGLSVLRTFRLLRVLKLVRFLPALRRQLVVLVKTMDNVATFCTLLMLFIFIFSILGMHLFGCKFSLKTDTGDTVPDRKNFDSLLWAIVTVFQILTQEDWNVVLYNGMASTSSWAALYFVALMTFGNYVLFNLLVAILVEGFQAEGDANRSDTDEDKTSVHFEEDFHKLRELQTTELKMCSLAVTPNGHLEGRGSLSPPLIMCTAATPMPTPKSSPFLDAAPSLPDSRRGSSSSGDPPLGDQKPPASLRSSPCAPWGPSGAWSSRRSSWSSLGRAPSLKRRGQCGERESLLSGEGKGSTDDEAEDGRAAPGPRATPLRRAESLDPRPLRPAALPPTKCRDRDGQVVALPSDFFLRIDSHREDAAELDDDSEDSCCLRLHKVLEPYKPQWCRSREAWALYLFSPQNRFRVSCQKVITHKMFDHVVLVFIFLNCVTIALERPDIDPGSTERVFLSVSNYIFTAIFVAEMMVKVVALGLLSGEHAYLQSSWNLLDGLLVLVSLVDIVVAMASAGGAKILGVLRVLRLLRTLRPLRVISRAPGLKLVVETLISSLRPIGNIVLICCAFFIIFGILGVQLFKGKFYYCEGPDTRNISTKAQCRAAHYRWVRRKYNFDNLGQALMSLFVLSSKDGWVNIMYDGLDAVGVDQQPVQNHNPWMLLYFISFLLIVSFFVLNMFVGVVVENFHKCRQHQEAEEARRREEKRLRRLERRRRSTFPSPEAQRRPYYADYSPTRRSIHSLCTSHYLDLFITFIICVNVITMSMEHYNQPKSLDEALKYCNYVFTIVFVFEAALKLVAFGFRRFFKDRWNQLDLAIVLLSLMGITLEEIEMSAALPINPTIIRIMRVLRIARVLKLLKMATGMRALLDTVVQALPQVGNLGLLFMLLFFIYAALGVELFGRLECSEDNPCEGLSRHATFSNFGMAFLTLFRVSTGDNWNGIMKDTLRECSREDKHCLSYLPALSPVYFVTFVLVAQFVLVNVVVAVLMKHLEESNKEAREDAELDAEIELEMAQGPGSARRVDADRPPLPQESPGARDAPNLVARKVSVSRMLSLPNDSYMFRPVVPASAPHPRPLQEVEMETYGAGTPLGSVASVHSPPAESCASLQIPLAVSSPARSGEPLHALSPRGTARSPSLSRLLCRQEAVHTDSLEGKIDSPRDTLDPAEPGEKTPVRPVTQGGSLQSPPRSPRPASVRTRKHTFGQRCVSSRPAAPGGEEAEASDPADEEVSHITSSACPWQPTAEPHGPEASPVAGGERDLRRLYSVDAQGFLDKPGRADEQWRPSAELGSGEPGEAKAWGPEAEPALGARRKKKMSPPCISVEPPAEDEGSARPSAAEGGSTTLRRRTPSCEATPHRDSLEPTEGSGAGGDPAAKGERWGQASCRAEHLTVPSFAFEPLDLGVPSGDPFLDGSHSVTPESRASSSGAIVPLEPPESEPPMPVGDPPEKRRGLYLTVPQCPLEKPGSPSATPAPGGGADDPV
SMILES,IC50 [1] [µM],IC50 [2] [µM],IC50 [3] [µM]
"C[C@@H](NC(=O)C1CC1c1nc2ccccc2[nH]1)c1ccc(C(=O)O)s1 (single isomer, unassigned) [Example 27]",> 10,,
"C[C@@H](NC(=O)[C@H]1C[C@@H]1c1nc2ccccc2[nH]1)c1ccc2c(c1)OCCO2 [Example 70, (1S,2S)-2-(1H-benzo[d]imidazol-2-yl)-N—((R)-1-(2,3-dihydrobenzo[b][1,4]dioxin-6-yl)ethyl)cyclopropane-1-carboxamide]",1 to 10,,
"C[C@@H](NC(=O)[C@H]1C[C@@H]1c1nc2ccccc2[nH]1)c1ccc2ccn(C)c2c1 [Example 86, (1S,2S)-2-(1H-benzo[d]imidazol-2-yl)-N—((R)-1-(1-methyl-1H-indol-6-yl)ethyl)cyclopropane-1-carboxamide]",1 to 10,,
"C[C@H](NC(=O)C1CC1c1nc2ccccc2[nH]1)c1ccc(OCC(F)(F)F)s1 (single isomer, unassigned) [Example 2B]",,1 to 10,> 10
"C[C@@H](NC(=O)C1CC1c1ccc2ccccc2n1)c1ccc(Br)s1 (single isomer, unassigned) [Example 45]",0.1 to 1,,
"C[C@@H](NC(=O)C1CC1C(=O)Nc1cccc(C(F)(F)F)c1)c1cc2cc(F)ccc2o1 (single isomer, unassigned) [Example 130B]",0.1 to 1,,
"C[C@@H](NC(=O)C1CC1c1cn(C)c2ccccc12)c1cnc(OCC(F)(F)F)s1 (single isomer, unassigned) [Example 48]",≤ 0.1,,
C[C@@H](NC(=O)C1CC1c1nc2ccccc2[nH]1)c1cnn(CCC(F)(F)F)c1 (stereo partly drawn) [Example 9],,> 10,
"C[C@@H](NC(=O)C1CC1c1ccc2cnn(C)c2c1)c1cc2cc(F)ccc2o1 (single isomer, unassigned) [Example 103A]",0.1 to 1,,
"CC(NC(=O)C1CC1c1nc2ccccc2[nH]1)c1cn(C(=O)OC(C)(C)C)c2ccccc12 (stereo not drawn) [Example 10, Trans-3-(1-(2-(1H-benzo[d]imidazol-2-yl)cyclopropanecarboxamido)ethyl)-1H-indole-1-carboxylic acid tert-butyl ester]",,0.1 to 1,0.1 to 1
"C[C@@H](NC(=O)C1CC1c1nc2cccnc2[nH]1)c1ccc(OCC(F)(F)F)s1 (single isomer, unassigned) [Example 35]",1 to 10,,
"C[C@@H](NC(=O)[C@@H]1CCN(CCC(C)(C)C)C1)c1ccc(OCC(F)(F)F)s1 [Example 18, (R)-1-(3,3-dimethylbutyl)-N—((R)-1-(5-(2,2,2-trifluoroethoxy)thiophen-2-yl)ethyl)pyrrolidine-3-carboxamide hydrochloride]",,1 to 10,1 to 10
"C[C@@H](NC(=O)C1CC1c1nc2ccccc2[nH]1)c1ccc(OCC(F)(F)F)s1 (single isomer, unassigned) [Example 3B]",,1 to 10,1 to 10
"C[C@@H](NC(=O)[C@@H]1CCN(c2nc3ccccc3s2)C1)c1cc2cc(F)ccc2o1 [Example 126, (R)-1-(benzo[d]thiazol-2-yl)-N—((R)-1-(5-fluorobenzofuran-2-yl)ethyl)pyrrolidine-3-carboxamide]",0.1 to 1,,
"C[C@@H](NC(=O)C1CC1c1nccn1Cc1ccccc1)c1ccc(OCC(F)(F)F)s1 (single isomer, unassigned) [Example 38A]",> 10,,
"C[C@@H](NC(=O)C1CC1c1ccc2cnn(C)c2c1)c1cc2cc(F)ccc2o1 (single isomer, unassigned) [Example 103B]",> 10,,
"C[C@@H](NC(=O)C1CC1c1cn(C)c2ccccc12)c1ccc(OCC(F)(F)F)s1 (single isomer, unassigned) [Example 29A]",> 10,,
"C[C@@H](NC(=O)C1CC1COc1ccc(F)cc1)c1cc2cc(F)ccc2o1 (single isomer, unassigned) [Example 112B]",0.1 to 1,,

SMILES,IC50 [1] [µM],IC50 [2] [µM],IC50 [3] [µM]
"C[C@H](NC(=O)C1CC1c1nc2ccccc2[nH]1)c1cnc(OCC(F)(F)F)s1 (single isomer, unassigned) [Example 7B]",,1 to 10,> 10
"C[C@@H](NC(=O)C1CC1c1nc2ccccc2[nH]1)c1ccc(Br)s1 (single isomer, unassigned) [Example 6B]",,1 to 10,> 10
"C[C@@H](NC(=O)[C@H]1C[C@@H]1c1nc2cc(Cl)ccc2[nH]1)c1cc2cc(F)ccc2o1 [Example 81, (1S,2S)-2-(5-chloro-1H-benzo[d]imidazol-2-yl)-N—((R)-1-(5-fluorobenzofuran-2-yl)ethyl)cyclopropane-1-carboxamide]",≤ 0.1,,
"C[C@@H](NC(=O)C1CC1c1nc2ccccc2[nH]1)c1ccc(C(=O)N2CCCC2(C)C)s1 (stereo in doubt) [Example 67, Trans-2-(1H-benzo[d]imidazol-2-yl)-N—((R)-1-(5-(2,2-dimethylpyrrolidine-1-carbonyl)thiophen-2-yl)ethyl)cyclopropane-1-carboxamide]",1 to 10,,
"C[C@@H](NC(=O)[C@@H]1CCN(c2ccc(C(F)(F)F)cn2)C1)c1ccc(OCC(F)(F)F)s1 [Example 41, (R)—N—((R)-1-(5-(2,2,2-trifluoroethoxy)thiophen-2-yl)ethyl)-1-(5-(trifluoromethyl)pyridin-2-yl)pyrrolidine-3-carboxamide]",1 to 10,,
"C[C@@H](NC(=O)[C@H]1CCN(CC(=O)NC(C)(C)C)C1)c1ccc(OCC(F)(F)F)s1 [Example 14, (S)-1-(2-(tert-butylamino)-2-oxoethyl)-N—((R)-1-(5-(2,2,2-trifluoroethoxy)thiophen-2-yl)ethyl)pyrrolidine-3-carboxamide hydrochloride]",,1 to 10,1 to 10
"C[C@@H](NC(=O)C1CC1c1nc2c(Cl)cccc2[nH]1)c1ccc(OCC(F)(F)F)s1 (single isomer, unassigned) [Example 122B]",0.1 to 1,,
"C[C@@H](NC(=O)C1CC1COc1ccc(F)cc1)c1cc2cc(F)ccc2o1 (single isomer, unassigned) [Example 112A]",1 to 10,,
"C[C@@H](NC(=O)[C@H]1C[C@@H]1c1nc2ccccc2[nH]1)c1ccc(C(=O)N(C)C)s1 [Example 84, 5-((R)-1-((1S,2S)-2-(1H-benzo[d]imidazol-2-yl)cyclopropane-1-carboxamido)ethyl)-N,N-dimethylthiophene-2-carboxamide]",1 to 10,,
"C[C@@H](NC(=O)C1CC1c1ccc2ccccc2n1)c1ccc(OCC(F)(F)F)s1 (single isomer, unassigned) [Example 34B]",0.1 to 1,,
"C[C@@H](NC(=O)[C@H]1C[C@@H]1c1nc2ccccc2[nH]1)c1cc2cc(C#N)ccc2o1 [Example 107, (1S,2S)-2-(1H-benzo[d]imidazol-2-yl)-N—((R)-1-(5-cyanobenzofuran-2-yl)ethyl)cyclopropane-1-carboxamide]",0.1 to 1,,
"CC(NC(=O)[C@H]1C[C@@H]1c1nc2ccccc2[nH]1)c1nc2ccc(F)cc2[nH]1 (single isomer, unassigned) [Example 127A]",0.1 to 1,,
"C[C@@H](NC(=O)[C@@H]1CCN(c2nc3ccccc3s2)C1)c1ccc(OCC(F)(F)F)s1 [Example 13, (R)-1-(benzo[d]thiazol-2-yl)-N—((R)-1-(5-(2,2,2-trifluoroethoxy)thiophen-2-yl)ethyl)pyrrolidine-3-carboxamide]",,> 10,
"CCn1c(C2CC2C(=O)N[C@H](C)c2cnc(OCC(F)(F)F)s2)nc2ccccc21 (single isomer, unassigned) [Example 57B]",1 to 10,,
"C[C@@H](NC(=O)C1CC1c1nc2cc(Cl)cnc2[nH]1)c1ccc(OCC(F)(F)F)s1 (single isomer, unassigned) [Example 85A]",1 to 10,,
"C[C@@H](NC(=O)C1CC1c1nc2ccccc2o1)c1ccc(OCC(F)(F)F)s1 (single isomer, unassigned) [Example 40A]",> 10,,
"C[C@@H](NC(=O)[C@H]1C[C@@H]1c1nc2ccccc2[nH]1)c1ccc2c(c1)OCO2 [Example 55, (1S,2S)—N—((R)-1-(benzo[d][1,3]dioxol-5-yl)ethyl)-2-(1H-benzo[d]imidazol-2-yl)cyclopropane-1-carboxamide]",0.1 to 1,,
